Data as given in PMC11864979, “First-in-class ultralong-target-residence-time p38α inhibitors as a mitosis-targeted therapy for colorectal cancer” (Nature Cancer, 2025).
Where two headings read alike, the source gives them in different places.

What was measured:
Assay in all cases: selectivity profiling in a panel of 340 wild-type kinases (Reaction Biology Europe)
Type in all cases: binding
340 wild-type kinases [1] = biological target: T1, 340 wild-type kinases (Homo sapiens, UniProt O60674)
T1 construct: purchased Reaction Biology Europe

340 wild-type kinases [2] = biological target: T2, 340 wild-type kinases (Homo sapiens, UniProt P12931)
T2 construct: purchased Reaction Biology Europe
T2 sequence (P12931 whole entry): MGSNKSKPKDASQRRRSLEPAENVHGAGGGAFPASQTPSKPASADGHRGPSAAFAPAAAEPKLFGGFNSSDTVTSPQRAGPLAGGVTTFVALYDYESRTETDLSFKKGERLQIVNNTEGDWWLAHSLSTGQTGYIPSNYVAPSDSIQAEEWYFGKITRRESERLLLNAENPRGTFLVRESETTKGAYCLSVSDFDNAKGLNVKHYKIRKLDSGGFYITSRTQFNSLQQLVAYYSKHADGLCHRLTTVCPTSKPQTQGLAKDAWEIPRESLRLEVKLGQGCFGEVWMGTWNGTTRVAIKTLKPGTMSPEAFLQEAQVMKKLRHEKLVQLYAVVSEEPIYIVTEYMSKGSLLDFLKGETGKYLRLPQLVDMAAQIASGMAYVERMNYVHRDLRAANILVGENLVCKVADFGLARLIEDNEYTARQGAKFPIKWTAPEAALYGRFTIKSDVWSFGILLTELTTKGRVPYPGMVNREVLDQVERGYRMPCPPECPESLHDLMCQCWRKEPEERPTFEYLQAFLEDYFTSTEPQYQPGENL

340 wild-type kinases [3] = biological target: T3, 340 wild-type kinases (Homo sapiens, UniProt P41240)
T3 construct: purchased Reaction Biology Europe
T3 sequence (P41240 whole entry): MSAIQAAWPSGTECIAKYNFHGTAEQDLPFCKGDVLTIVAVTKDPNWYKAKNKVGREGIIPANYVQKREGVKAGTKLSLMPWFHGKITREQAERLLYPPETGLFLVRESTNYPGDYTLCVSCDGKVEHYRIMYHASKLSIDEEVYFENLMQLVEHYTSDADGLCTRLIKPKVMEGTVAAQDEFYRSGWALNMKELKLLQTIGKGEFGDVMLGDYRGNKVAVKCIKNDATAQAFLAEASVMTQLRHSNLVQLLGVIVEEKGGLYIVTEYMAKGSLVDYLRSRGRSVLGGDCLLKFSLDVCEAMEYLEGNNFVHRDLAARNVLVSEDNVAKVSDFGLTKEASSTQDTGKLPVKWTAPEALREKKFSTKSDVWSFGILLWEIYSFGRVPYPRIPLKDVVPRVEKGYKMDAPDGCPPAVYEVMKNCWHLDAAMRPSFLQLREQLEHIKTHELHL

340 wild-type kinases [4] = biological target: T4, 340 wild-type kinases (Homo sapiens, UniProt P49760)
T4 construct: purchased Reaction Biology Europe
T4 sequence (P49760 whole entry): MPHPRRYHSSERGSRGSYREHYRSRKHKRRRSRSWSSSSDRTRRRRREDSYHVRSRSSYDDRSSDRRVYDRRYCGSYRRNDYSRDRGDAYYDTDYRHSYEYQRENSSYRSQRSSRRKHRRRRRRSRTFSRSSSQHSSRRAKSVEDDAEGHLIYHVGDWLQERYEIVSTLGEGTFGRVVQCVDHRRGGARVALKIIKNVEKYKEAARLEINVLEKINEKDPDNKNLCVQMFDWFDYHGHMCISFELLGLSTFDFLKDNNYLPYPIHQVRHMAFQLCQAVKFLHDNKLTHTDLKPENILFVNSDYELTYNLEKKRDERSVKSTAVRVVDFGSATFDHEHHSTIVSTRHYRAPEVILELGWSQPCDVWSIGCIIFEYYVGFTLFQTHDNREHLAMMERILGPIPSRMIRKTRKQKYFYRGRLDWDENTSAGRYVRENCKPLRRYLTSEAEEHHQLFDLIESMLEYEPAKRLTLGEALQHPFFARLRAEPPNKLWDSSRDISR

340 wild-type kinases [5] = biological target: T5, 340 wild-type kinases (Homo sapiens, UniProt P49840)
T5 construct: purchased Reaction Biology Europe
T5 sequence (P49840 whole entry): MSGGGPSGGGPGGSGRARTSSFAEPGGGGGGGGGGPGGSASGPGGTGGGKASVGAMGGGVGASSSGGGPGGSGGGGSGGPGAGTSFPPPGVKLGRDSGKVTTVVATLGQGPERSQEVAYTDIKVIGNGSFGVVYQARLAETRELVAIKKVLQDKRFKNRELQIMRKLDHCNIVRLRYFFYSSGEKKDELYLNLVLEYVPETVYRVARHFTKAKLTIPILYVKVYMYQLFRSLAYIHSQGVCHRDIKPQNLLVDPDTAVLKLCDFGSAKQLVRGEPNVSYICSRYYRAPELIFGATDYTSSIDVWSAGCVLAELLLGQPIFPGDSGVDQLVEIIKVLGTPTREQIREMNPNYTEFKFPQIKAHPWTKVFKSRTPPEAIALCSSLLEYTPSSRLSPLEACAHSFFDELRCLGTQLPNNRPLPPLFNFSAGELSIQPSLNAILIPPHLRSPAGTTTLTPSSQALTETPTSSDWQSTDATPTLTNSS

340 wild-type kinases [6] = biological target: T6, 340 wild-type kinases (Homo sapiens, UniProt Q00535)
T6 construct: purchased Reaction Biology Europe
T6 sequence (Q00535 whole entry): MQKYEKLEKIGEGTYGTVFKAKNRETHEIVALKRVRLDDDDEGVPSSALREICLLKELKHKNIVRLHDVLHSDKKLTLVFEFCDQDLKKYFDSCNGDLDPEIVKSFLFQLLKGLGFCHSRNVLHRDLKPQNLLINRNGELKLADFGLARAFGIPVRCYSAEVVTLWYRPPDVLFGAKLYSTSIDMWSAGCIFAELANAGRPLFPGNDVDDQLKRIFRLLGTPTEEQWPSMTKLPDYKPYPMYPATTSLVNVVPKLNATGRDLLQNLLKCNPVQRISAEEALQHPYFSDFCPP

340 wild-type kinases [7] = biological target: T7, 340 wild-type kinases (Homo sapiens, UniProt Q05655)
T7 construct: purchased Reaction Biology Europe
T7 sequence (Q05655 whole entry): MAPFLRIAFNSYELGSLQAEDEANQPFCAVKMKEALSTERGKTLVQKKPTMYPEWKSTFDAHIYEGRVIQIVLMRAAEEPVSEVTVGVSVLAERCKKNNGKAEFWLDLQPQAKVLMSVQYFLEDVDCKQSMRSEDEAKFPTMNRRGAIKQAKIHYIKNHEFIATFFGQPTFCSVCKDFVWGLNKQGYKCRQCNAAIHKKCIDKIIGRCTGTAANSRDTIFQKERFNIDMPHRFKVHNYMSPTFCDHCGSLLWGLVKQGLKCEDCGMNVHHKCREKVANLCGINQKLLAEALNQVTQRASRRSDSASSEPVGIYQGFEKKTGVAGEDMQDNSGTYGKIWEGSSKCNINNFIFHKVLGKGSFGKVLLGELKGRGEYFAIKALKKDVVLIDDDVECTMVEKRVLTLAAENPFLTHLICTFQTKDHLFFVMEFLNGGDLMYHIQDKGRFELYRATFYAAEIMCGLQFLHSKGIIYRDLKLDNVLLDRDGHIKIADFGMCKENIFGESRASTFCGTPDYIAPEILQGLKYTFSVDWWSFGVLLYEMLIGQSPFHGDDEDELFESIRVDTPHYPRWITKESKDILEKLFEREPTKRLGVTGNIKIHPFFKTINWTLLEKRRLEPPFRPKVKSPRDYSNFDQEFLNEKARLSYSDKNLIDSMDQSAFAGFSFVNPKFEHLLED

340 wild-type kinases [8] = biological target: T8, 340 wild-type kinases (Homo sapiens, UniProt Q5VT25)
T8 construct: purchased Reaction Biology Europe

340 wild-type kinases [9] = biological target: T9, 340 wild-type kinases (Homo sapiens, UniProt Q8IYT8)
T9 construct: purchased Reaction Biology Europe
T9 sequence (Q8IYT8 1-1036): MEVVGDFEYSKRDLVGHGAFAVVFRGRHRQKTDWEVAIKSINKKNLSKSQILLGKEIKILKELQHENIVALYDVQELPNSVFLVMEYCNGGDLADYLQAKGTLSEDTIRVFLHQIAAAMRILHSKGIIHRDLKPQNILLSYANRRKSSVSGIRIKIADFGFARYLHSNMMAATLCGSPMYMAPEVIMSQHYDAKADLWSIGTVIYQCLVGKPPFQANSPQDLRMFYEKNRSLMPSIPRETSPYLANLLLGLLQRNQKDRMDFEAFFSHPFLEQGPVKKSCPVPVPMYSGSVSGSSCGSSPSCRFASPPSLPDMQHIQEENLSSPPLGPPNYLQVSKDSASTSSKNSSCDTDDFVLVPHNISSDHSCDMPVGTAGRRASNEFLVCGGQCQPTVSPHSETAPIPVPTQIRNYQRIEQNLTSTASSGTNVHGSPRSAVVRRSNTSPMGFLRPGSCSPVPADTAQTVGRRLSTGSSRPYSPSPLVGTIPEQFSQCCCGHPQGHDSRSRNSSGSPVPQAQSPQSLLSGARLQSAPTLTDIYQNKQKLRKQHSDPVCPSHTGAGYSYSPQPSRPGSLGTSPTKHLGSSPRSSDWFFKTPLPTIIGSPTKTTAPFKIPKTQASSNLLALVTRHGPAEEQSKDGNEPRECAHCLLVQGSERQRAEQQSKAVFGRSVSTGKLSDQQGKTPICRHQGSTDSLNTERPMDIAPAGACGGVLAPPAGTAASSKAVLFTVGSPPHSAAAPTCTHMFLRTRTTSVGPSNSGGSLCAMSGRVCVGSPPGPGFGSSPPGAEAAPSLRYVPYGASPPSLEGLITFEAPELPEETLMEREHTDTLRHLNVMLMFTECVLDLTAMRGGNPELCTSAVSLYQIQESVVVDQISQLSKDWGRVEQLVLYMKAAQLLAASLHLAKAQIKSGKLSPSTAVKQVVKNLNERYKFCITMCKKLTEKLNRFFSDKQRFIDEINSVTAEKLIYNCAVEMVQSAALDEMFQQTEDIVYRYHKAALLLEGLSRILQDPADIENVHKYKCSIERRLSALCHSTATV

340 wild-type kinases [10] = biological target: T10, 340 wild-type kinases (Homo sapiens, UniProt Q96RG2)
T10 construct: purchased Reaction Biology Europe
T10 sequence (Q96RG2 whole entry): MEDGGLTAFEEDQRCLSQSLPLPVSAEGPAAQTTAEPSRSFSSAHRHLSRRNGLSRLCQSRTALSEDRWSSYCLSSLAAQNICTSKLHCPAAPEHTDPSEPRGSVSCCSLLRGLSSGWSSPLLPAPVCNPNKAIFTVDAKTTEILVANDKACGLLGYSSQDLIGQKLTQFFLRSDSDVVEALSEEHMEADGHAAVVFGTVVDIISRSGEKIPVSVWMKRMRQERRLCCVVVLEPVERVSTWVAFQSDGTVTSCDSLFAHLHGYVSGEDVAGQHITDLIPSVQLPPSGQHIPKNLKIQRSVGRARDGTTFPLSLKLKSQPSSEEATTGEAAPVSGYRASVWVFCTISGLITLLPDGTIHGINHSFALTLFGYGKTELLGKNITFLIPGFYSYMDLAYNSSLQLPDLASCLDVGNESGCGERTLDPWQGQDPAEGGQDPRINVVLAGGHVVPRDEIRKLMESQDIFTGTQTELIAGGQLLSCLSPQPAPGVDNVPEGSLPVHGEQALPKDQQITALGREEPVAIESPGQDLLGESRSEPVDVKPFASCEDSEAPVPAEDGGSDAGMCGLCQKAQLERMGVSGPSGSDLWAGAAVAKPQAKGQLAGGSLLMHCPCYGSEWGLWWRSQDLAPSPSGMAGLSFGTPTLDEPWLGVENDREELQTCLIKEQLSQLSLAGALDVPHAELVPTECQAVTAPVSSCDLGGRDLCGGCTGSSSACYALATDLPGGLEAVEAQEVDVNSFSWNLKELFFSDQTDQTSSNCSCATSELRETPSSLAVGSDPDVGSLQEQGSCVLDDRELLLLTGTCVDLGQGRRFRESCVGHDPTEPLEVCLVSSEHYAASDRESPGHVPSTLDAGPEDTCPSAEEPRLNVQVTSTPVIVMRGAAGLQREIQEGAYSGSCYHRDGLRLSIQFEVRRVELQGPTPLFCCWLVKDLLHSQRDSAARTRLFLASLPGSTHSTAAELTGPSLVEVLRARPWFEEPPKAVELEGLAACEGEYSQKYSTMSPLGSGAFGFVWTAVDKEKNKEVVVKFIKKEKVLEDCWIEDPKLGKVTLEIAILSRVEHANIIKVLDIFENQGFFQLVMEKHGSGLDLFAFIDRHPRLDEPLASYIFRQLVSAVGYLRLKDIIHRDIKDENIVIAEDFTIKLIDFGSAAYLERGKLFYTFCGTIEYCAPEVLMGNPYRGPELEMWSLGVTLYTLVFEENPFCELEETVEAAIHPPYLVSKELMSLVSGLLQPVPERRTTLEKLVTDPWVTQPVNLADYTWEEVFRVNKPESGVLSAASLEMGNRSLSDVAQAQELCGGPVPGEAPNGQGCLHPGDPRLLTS

340 wild-type kinases [11] = biological target: T11, 340 wild-type kinases (Homo sapiens, UniProt Q9H1R3)
T11 construct: purchased Reaction Biology Europe
T11 sequence (Q9H1R3 whole entry): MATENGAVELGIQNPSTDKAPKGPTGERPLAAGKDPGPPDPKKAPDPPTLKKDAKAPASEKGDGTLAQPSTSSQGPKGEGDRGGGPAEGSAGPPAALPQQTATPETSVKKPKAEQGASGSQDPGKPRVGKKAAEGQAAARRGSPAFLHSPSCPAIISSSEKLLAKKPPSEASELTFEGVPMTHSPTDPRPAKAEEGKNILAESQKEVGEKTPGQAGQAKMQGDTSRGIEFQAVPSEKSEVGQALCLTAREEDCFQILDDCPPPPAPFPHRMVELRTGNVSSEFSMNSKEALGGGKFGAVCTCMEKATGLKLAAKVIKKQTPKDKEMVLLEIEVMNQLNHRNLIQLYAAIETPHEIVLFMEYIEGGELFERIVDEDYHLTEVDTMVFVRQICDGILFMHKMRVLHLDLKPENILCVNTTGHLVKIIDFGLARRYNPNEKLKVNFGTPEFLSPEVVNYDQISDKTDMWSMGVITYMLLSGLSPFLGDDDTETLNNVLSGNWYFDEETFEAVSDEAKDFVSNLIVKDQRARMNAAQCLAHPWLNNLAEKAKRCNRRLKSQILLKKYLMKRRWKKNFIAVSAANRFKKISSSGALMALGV

Structure (SMILES): CNC(=O)c1ccc2c(c1)C(=O)c1ccc(Nc3ccc(F)c(NC(=O)C4CC4)c3)cc1CC2 [Compound 2015]
- remaining activity at 0.2 µM (340 wild-type kinases [1]; 0.2 µM 2015, read-out: JAK2 residual activity): 104%
- remaining activity at 1 µM (340 wild-type kinases [1]; 1 µM 2015, read-out: JAK2 residual activity): 102%
- remaining activity at 0.2 µM (340 wild-type kinases [1]; JAK2, 0.2 µM, read-out: residual activity): 104%
- remaining activity at 1 µM (340 wild-type kinases [1]; JAK2, 1 µM, read-out: residual activity): 102%
- remaining activity at 0.2 µM (340 wild-type kinases [2]; 0.2 µM 2015, read-out: SRC residual activity): 105%
- remaining activity at 1 µM (340 wild-type kinases [2]; 1 µM 2015, read-out: SRC residual activity): 95.5%
- remaining activity at 0.2 µM (340 wild-type kinases [2]; SRC, 0.2 µM, read-out: residual activity): 105%
- remaining activity at 1 µM (340 wild-type kinases [2]; SRC, 1 µM, read-out: residual activity): 95.5%
- remaining activity at 0.2 µM (340 wild-type kinases [3]; 0.2 µM 2015, read-out: CSK residual activity): 114%
- remaining activity at 1 µM (340 wild-type kinases [3]; 1 µM 2015, read-out: CSK residual activity): 93.1%
- remaining activity at 0.2 µM (340 wild-type kinases [3]; CSK, 0.2 µM, read-out: residual activity): 114%
- remaining activity at 1 µM (340 wild-type kinases [3]; CSK, 1 µM, read-out: residual activity): 93.1%
- remaining activity at 0.2 µM (340 wild-type kinases [4]; 0.2 µM 2015, read-out: CLK2 residual activity): 110%
- remaining activity at 1 µM (340 wild-type kinases [4]; 1 µM 2015, read-out: CLK2 residual activity): 96.8%
- remaining activity at 0.2 µM (340 wild-type kinases [4]; CLK2, 0.2 µM, read-out: residual activity): 110%
- remaining activity at 1 µM (340 wild-type kinases [4]; CLK2, 1 µM, read-out: residual activity): 96.8%
- remaining activity at 0.2 µM (340 wild-type kinases [5]; 0.2 µM 2015, read-out: GSK3alpha residual activity): 110%
- remaining activity at 1 µM (340 wild-type kinases [5]; 1 µM 2015, read-out: GSK3alpha residual activity): 82.6%
- remaining activity at 0.2 µM (340 wild-type kinases [5]; GSK3alpha, 0.2 µM, read-out: residual activity): 110%
- remaining activity at 1 µM (340 wild-type kinases [5]; GSK3alpha, 1 µM, read-out: residual activity): 82.6%
- remaining activity at 0.2 µM (340 wild-type kinases [6]; 0.2 µM 2015, read-out: CDK5/p25NCK residual activity): 110%
- remaining activity at 0.2 µM (340 wild-type kinases [6]; 0.2 µM 2015, read-out: CDK5/p35NCK residual activity): 114%
- remaining activity at 1 µM (340 wild-type kinases [6]; 1 µM 2015, read-out: CDK5/p25NCK residual activity): 100%
- remaining activity at 1 µM (340 wild-type kinases [6]; 1 µM 2015, read-out: CDK5/p35NCK residual activity): 103%
- remaining activity at 0.2 µM (340 wild-type kinases [6]; CDK5/p25NCK, 0.2 µM, read-out: residual activity): 110%
- remaining activity at 1 µM (340 wild-type kinases [6]; CDK5/p25NCK, 1 µM, read-out: residual activity): 100%
- remaining activity at 0.2 µM (340 wild-type kinases [6]; CDK5/p35NCK, 0.2 µM, read-out: residual activity): 114%
- remaining activity at 1 µM (340 wild-type kinases [6]; CDK5/p35NCK, 1 µM, read-out: residual activity): 103%
- remaining activity at 0.2 µM (340 wild-type kinases [7]; 0.2 µM 2015, read-out: PKCdelta residual activity): 95.6%
- remaining activity at 1 µM (340 wild-type kinases [7]; 1 µM 2015, read-out: PKCdelta residual activity): 97%
- remaining activity at 0.2 µM (340 wild-type kinases [7]; PKCdelta, 0.2 µM, read-out: residual activity): 95.6%
- remaining activity at 1 µM (340 wild-type kinases [7]; PKCdelta, 1 µM, read-out: residual activity): 97%
- remaining activity at 0.2 µM (340 wild-type kinases [8]; 0.2 µM 2015, read-out: CDC42BPA residual activity): 118%
- remaining activity at 1 µM (340 wild-type kinases [8]; 1 µM 2015, read-out: CDC42BPA residual activity): 112%
- remaining activity at 0.2 µM (340 wild-type kinases [8]; CDC42BPA, 0.2 µM, read-out: residual activity): 118%
- remaining activity at 1 µM (340 wild-type kinases [8]; CDC42BPA, 1 µM, read-out: residual activity): 112%
- remaining activity at 0.2 µM (340 wild-type kinases [9]; 0.2 µM 2015, read-out: ULK2 residual activity): 105%
- remaining activity at 1 µM (340 wild-type kinases [9]; 1 µM 2015, read-out: ULK2 residual activity): 87.8%
- remaining activity at 0.2 µM (340 wild-type kinases [9]; ULK2, 0.2 µM, read-out: residual activity): 105%
- remaining activity at 1 µM (340 wild-type kinases [9]; ULK2, 1 µM, read-out: residual activity): 87.8%
- remaining activity at 0.2 µM (340 wild-type kinases [10]; 0.2 µM 2015, read-out: PASK residual activity): 99.2%
- remaining activity at 1 µM (340 wild-type kinases [10]; 1 µM 2015, read-out: PASK residual activity): 95.1%
- remaining activity at 0.2 µM (340 wild-type kinases [10]; PASK, 0.2 µM, read-out: residual activity): 99.2%
- remaining activity at 1 µM (340 wild-type kinases [10]; PASK, 1 µM, read-out: residual activity): 95.1%
- remaining activity at 0.2 µM (340 wild-type kinases [11]; 0.2 µM 2015, read-out: MYLK2 residual activity): 89.3%
- remaining activity at 1 µM (340 wild-type kinases [11]; 1 µM 2015, read-out: MYLK2 residual activity): 77.6%
- remaining activity at 0.2 µM (340 wild-type kinases [11]; MYLK2, 0.2 µM, read-out: residual activity): 89.3%
- remaining activity at 1 µM (340 wild-type kinases [11]; MYLK2, 1 µM, read-out: residual activity): 77.6%
